Measurements reported in PubChem BioAssay AID1347042.

Each compound was assayed on MutuI BL cells, EBV BHLF1 promoter luciferase, 48 h (assay: EBV lytic cycle activators, dose response, cell-based, MutuI Burkitt lymphoma, luciferase (AID 1347042)).
`COc1ccccc1NC(=O)N1CCc2c([nH]c3ccc(Cl)cc23)C1c1ccc(C)cc1` (stereo not given) was tested, and the EC50 was 170 nM.
`COC(=O)c1ccccc1NC(=O)N1CCc2c([nH]c3ccc(Cl)cc23)C1c1ccc(OC)cc1` (stereo not given) gave an EC50 of 158 nM.
In the case of `COc1ccc(C2c3[nH]c4ccc(Cl)cc4c3CCN2C(=O)Nc2ccc(OC)cc2OC)cc1` (stereo not given), the EC50 is reported as 113 nM.
In the case of `COC(=O)c1sccc1NC(=O)N1CCc2c([nH]c3ccc(OC)cc23)C1c1ccc(C)cc1` (stereo not given), the EC50 is reported as 576 nM.
`CCOC(=O)c1ccccc1NC(=O)N1CCc2c([nH]c3ccc(OC)cc23)C1c1ccc(C)cc1` (stereo not given) gave an EC50 of 108 nM.
